Read-outs that look alike come from different tables or passages of the source.
Assay: Plasma pharmacokinetics (LC–MS/MS, non-compartmental analysis)
Assay type: in vivo, Japanese patients
Conditions: for AUC(0-inf) / AUC(0-t) / Cmax / Tmax: human, plasma, oral; for AUC(0-inf): read-out: AUCinf, Median; for Cmax: read-out: Cmax, Median
Method: The PK parameters were determined by non-compartmental analysis using Phoenix WinNonlin 6.2® (Pharsight, Mountain View, CA).

[1] = 400 mg, Cycle 1 Day 28, 400 mg qd, n = 3

With `Cn1c(=O)n(-c2ccc(C(C)(C)C#N)cc2)c2c3cc(-c4cnc5ccccc5c4)ccc3ncc21` [BEZ235] the “dose dependence of Cmax and AUC” value (400 to 1400 mg qd) was “appeared to increase in a dose-dependent manner”, the “inter-individual variability, coefficient of variation on the AUC and Cmax” value (at most of the visits and doses) was “greater than 100%” and the AUC(0-inf) (400 mg, Cycle 1 Day 1, 400 mg bid, n = 2) was 2000 ng·h/mL. It also gave an AUC(0-t) (400 mg, Cycle 1 Day 1, 400 mg bid, n = 4, read-out: AUC0 − 24, Median) of 1760 ng·h/mL, an AUC(0-t) (400 mg, Cycle 1 Day 1, 400 mg bid, n = 7, read-out: AUClast, Median) of 2280 ng·h/mL and a Cmax (400 mg, Cycle 1 Day 1, 400 mg bid, n = 7) of 301 ng/mL. For the same compound, the Tmax (400 mg, Cycle 1 Day 1, 400 mg bid, n = 7, read-out: Tmax, Median) was 6 h, the AUC(0-inf) (400 mg, Cycle 1 Day 1, 400 mg qd, n = 2) was 978 ng·h/mL and the AUC(0-t) (400 mg, Cycle 1 Day 1, 400 mg qd, n = 3, read-out: AUC0 − 24, Median) was 1040 ng·h/mL. It also gave an AUC(0-t) (400 mg, Cycle 1 Day 1, 400 mg qd, n = 3, read-out: AUClast, Median) of 1040 ng·h/mL, a Cmax (400 mg, Cycle 1 Day 1, 400 mg qd, n = 3) of 135 ng/mL and a Tmax (400 mg, Cycle 1 Day 1, 400 mg qd, n = 3, read-out: Tmax, Median) of 4 h. The AUC(0-inf) (400 mg, Cycle 1 Day 8, 400 mg bid, n = 1) was 2790 ng·h/mL, the AUC(0-t) (400 mg, Cycle 1 Day 8, 400 mg bid, n = 5, read-out: AUC0 − 24, Median) was 10700 ng·h/mL and the AUC(0-t) (400 mg, Cycle 1 Day 8, 400 mg bid, n = 6, read-out: AUClast, Median) was 9700 ng·h/mL. For the same compound, the Cmax (400 mg, Cycle 1 Day 8, 400 mg bid, n = 6) was 1050 ng/mL, the Tmax (400 mg, Cycle 1 Day 8, 400 mg bid, n = 6, read-out: Tmax, Median) was 4 h and the AUC(0-inf) (400 mg, Cycle 1 Day 8, 400 mg qd, n = 2) was 14300 ng·h/mL. It also gave an AUC(0-t) (400 mg, Cycle 1 Day 8, 400 mg qd, n = 3, read-out: AUC0 − 24, Median) of 7350 ng·h/mL, an AUC(0-t) (400 mg, Cycle 1 Day 8, 400 mg qd, n = 3, read-out: AUClast, Median) of 7350 ng·h/mL and a Cmax (400 mg, Cycle 1 Day 8, 400 mg qd, n = 3) of 754 ng/mL. It also gave a Tmax (400 mg, Cycle 1 Day 8, 400 mg qd, n = 3, read-out: Tmax, Median) of 4 h, an AUC(0-inf) (400 mg, Cycle 1 Day 28, 400 mg bid, n = 1) of 2660 ng·h/mL and an AUC(0-t) (400 mg, Cycle 1 Day 28, 400 mg bid, n = 3, read-out: AUC0 − 24, Median) of 29400 ng·h/mL. For the same compound, the AUC(0-t) (400 mg, Cycle 1 Day 28, 400 mg bid, n = 4, read-out: AUClast, Median) was 34100 ng·h/mL, the Cmax (400 mg, Cycle 1 Day 28, 400 mg bid, n = 4) was 3650 ng/mL and the Tmax (400 mg, Cycle 1 Day 28, 400 mg bid, n = 4, read-out: Tmax, Median) was 4 h. It also gave an AUC(0-t) (400 mg, Cycle 1 Day 28, 400 mg qd, n = 3, read-out: AUC0 − 24, Median) of 8920 ng·h/mL, an AUC(0-inf) [1] of 10200 ng·h/mL and an AUC(0-t) (400 mg, Cycle 1 Day 28, 400 mg qd, n = 3, read-out: AUClast, Median) of 8920 ng·h/mL. For the same compound, the Cmax [1] was 795 ng/mL, the Tmax (400 mg, Cycle 1 Day 28, 400 mg qd, n = 3, read-out: Tmax, Median) was 4 h and the AUC(0-inf) (800 mg, Cycle 1 Day 1, 800 mg qd, n = 1) was 1490 ng·h/mL. It also gave an AUC(0-t) (800 mg, Cycle 1 Day 1, 800 mg qd, n = 3, read-out: AUC0 − 24, Median) of 2560 ng·h/mL, an AUC(0-t) (800 mg, Cycle 1 Day 1, 800 mg qd, n = 3, read-out: AUClast, Median) of 2560 ng·h/mL and a Cmax (800 mg, Cycle 1 Day 1, 800 mg qd, n = 3) of 154 ng/mL. It also gave a Tmax (800 mg, Cycle 1 Day 1, 800 mg qd, n = 3, read-out: Tmax, Median) of 8 h, an AUC(0-inf) (800 mg, Cycle 1 Day 8, 800 mg qd, n = 1) of 19900 ng·h/mL and an AUC(0-t) (800 mg, Cycle 1 Day 8, 800 mg qd, n = 3, read-out: AUC0 − 24, Median) of 17300 ng·h/mL. The AUC(0-t) (800 mg, Cycle 1 Day 8, 800 mg qd, n = 3, read-out: AUClast, Median) was 17300 ng·h/mL, the Cmax (800 mg, Cycle 1 Day 8, 800 mg qd, n = 3) was 1170 ng/mL and the Tmax (800 mg, Cycle 1 Day 8, 800 mg qd, n = 3, read-out: Tmax, Median) was 6 h. It also gave an AUC(0-inf) (800 mg, Cycle 1 Day 28, 800 mg qd, n = 2) of 13500 ng·h/mL, an AUC(0-t) (800 mg, Cycle 1 Day 28, 800 mg qd, n = 3, read-out: AUC0 − 24, Median) of 25000 ng·h/mL and an AUC(0-t) (800 mg, Cycle 1 Day 28, 800 mg qd, n = 3, read-out: AUClast, Median) of 24900 ng·h/mL. For the same compound, the Cmax (800 mg, Cycle 1 Day 28, 800 mg qd, n = 3) was 1980 ng/mL, the Tmax (800 mg, Cycle 1 Day 28, 800 mg qd, n = 3, read-out: Tmax, Median) was 2 h and the AUC(0-inf) (1000 mg, Cycle 1 Day 1, 1000 mg qd, n = 3) was 1410 ng·h/mL. It also gave an AUC(0-t) (1000 mg, Cycle 1 Day 1, 1000 mg qd, n = 4, read-out: AUC0 − 24, Median) of 4330 ng·h/mL, an AUC(0-t) (1000 mg, Cycle 1 Day 1, 1000 mg qd, n = 6, read-out: AUClast, Median) of 4490 ng·h/mL and a Cmax (1000 mg, Cycle 1 Day 1, 1000 mg qd, n = 6) of 472 ng/mL. It also gave a Tmax (1000 mg, Cycle 1 Day 1, 1000 mg qd, n = 6, read-out: Tmax, Median) of 5 h, an AUC(0-t) (1000 mg, Cycle 1 Day 8, 1000 mg qd, n = 3, read-out: AUC0 − 24, Median) of 8260 ng·h/mL and an AUC(0-inf) (1000 mg, Cycle 1 Day 8, 1000 mg qd, n = 3) of 8300 ng·h/mL. The AUC(0-t) (1000 mg, Cycle 1 Day 8, 1000 mg qd, n = 7, read-out: AUClast, Median) was 9350 ng·h/mL, the Cmax (1000 mg, Cycle 1 Day 8, 1000 mg qd, n = 7) was 912 ng/mL and the Tmax (1000 mg, Cycle 1 Day 8, 1000 mg qd, n = 7, read-out: Tmax, Median) was 6 h. It also gave an AUC(0-t) (1000 mg, Cycle 1 Day 28, 1000 mg qd, n = 2, read-out: AUC0 − 24, Median) of 3740 ng·h/mL, an AUC(0-inf) (1000 mg, Cycle 1 Day 28, 1000 mg qd, n = 2) of 3770 ng·h/mL and an AUC(0-t) (1000 mg, Cycle 1 Day 28, 1000 mg qd, n = 4, read-out: AUClast, Median) of 4800 ng·h/mL. The Cmax (1000 mg, Cycle 1 Day 28, 1000 mg qd, n = 4) was 548 ng/mL, the Tmax (1000 mg, Cycle 1 Day 28, 1000 mg qd, n = 4, read-out: Tmax, Median) was 4 h and the AUC(0-inf) (1200 mg, Cycle 1 Day 1, 1200 mg qd, n = 1) was 2290 ng·h/mL. The AUC(0-t) (1200 mg, Cycle 1 Day 1, 1200 mg qd, n = 3, read-out: AUC0 − 24, Median) was 6420 ng·h/mL, the AUC(0-t) (1200 mg, Cycle 1 Day 1, 1200 mg qd, n = 5, read-out: AUClast, Median) was 6420 ng·h/mL and the Cmax (1200 mg, Cycle 1 Day 1, 1200 mg qd, n = 5) was 403 ng/mL. The Tmax (1200 mg, Cycle 1 Day 1, 1200 mg qd, n = 5, read-out: Tmax, Median) was 6 h, the AUC(0-inf) (1200 mg, Cycle 1 Day 8, 1200 mg qd, n = 1) was 14400 ng·h/mL and the AUC(0-t) (1200 mg, Cycle 1 Day 8, 1200 mg qd, n = 4, read-out: AUC0 − 24, Median) was 34200 ng·h/mL. For the same compound, the AUC(0-t) (1200 mg, Cycle 1 Day 8, 1200 mg qd, n = 4, read-out: AUClast, Median) was 33500 ng·h/mL, the Cmax (1200 mg, Cycle 1 Day 8, 1200 mg qd, n = 4) was 1810 ng/mL and the Tmax (1200 mg, Cycle 1 Day 8, 1200 mg qd, n = 4, read-out: Tmax, Median) was 4 h. It also gave an AUC(0-t) (1200 mg, Cycle 1 Day 28, 1200 mg qd, n = 1, read-out: AUC0 − 24, Median) of 43400 ng·h/mL, an AUC(0-t) (1200 mg, Cycle 1 Day 28, 1200 mg qd, n = 2, read-out: AUClast, Median) of 37100 ng·h/mL and a Cmax (1200 mg, Cycle 1 Day 28, 1200 mg qd, n = 2) of 2170 ng/mL. It also gave a Tmax (1200 mg, Cycle 1 Day 28, 1200 mg qd, n = 2, read-out: Tmax, Median) of 5.9 h, an AUC(0-inf) (1400 mg, Cycle 1 Day 1, 1400 mg qd, n = 1) of 1290 ng·h/mL and an AUC(0-t) (1400 mg, Cycle 1 Day 1, 1400 mg qd, n = 2, read-out: AUC0 − 24, Median) of 13700 ng·h/mL. For the same compound, the AUC(0-t) (1400 mg, Cycle 1 Day 1, 1400 mg qd, n = 5, read-out: AUClast, Median) was 10200 ng·h/mL, the Cmax (1400 mg, Cycle 1 Day 1, 1400 mg qd, n = 5) was 733 ng/mL and the Tmax (1400 mg, Cycle 1 Day 1, 1400 mg qd, n = 5, read-out: Tmax, Median) was 8 h. For the same compound, the AUC(0-t) (1400 mg, Cycle 1 Day 8, 1400 mg qd, n = 3, read-out: AUC0 − 24, Median) was 36400 ng·h/mL, the AUC(0-t) (1400 mg, Cycle 1 Day 8, 1400 mg qd, n = 5, read-out: AUClast, Median) was 35900 ng·h/mL and the Cmax (1400 mg, Cycle 1 Day 8, 1400 mg qd, n = 5) was 2480 ng/mL. The Tmax (1400 mg, Cycle 1 Day 8, 1400 mg qd, n = 5, read-out: Tmax, Median) was 4 h, the AUC(0-inf) (1400 mg, Cycle 1 Day 28, 1400 mg qd, n = 3) was 30700 ng·h/mL and the AUC(0-t) (1400 mg, Cycle 1 Day 28, 1400 mg qd, n = 4, read-out: AUC0 − 24, Median) was 18300 ng·h/mL. For the same compound, the AUC(0-t) (1400 mg, Cycle 1 Day 28, 1400 mg qd, n = 4, read-out: AUClast, Median) was 18300 ng·h/mL, the Cmax (1400 mg, Cycle 1 Day 28, 1400 mg qd, n = 4) was 1510 ng/mL and the Tmax (1400 mg, Cycle 1 Day 28, 1400 mg qd, n = 4, read-out: Tmax, Median) was 4 h. For the same compound, the Tmax (across all dose levels and dosing schedules, Day 1, Day 8, Day 28 of Cycle 1, read-out: Median Tmax) was roughly 4 h, the Tmax (all dose levels and dosing schedules, read-out: individual Tmax range) was 1 to 24 h and the “PK exposures on Day 8 versus Day 1” value (qd and bid regimens, Cycle 1) was “at least threefold higher”.

Source: publication PMC6394493 (Cancer Chemotherapy and Pharmacology, 2018)
